According to patent US5538945A, “Stimulation of hair growth by peptide copper complexes” (ProCyte Corporation, priority 1994, dated 1996):

What was measured:
Type in all cases: in vivo
[1] = test system: Sprague-Dawley rat pups treated with cytosine arabinoside (Ara-C); assay: Localized maintenance of hair follicle viability by intradermal injection during Ara-C chemotherapy (Example 16); conditions: for Degree of Alopecia (mean) at the site of injection: day 10, grade 0 normal to 4 total loss of hair
Text: The following experiment illustrates the localized maintenance of hair follicle viability (i.e., growth) by intradermal (local) injection of the peptide-copper complex AHK:Cu during treatment with the chemotherapeutic agent cytosine arabinoside (Ara-C).
In this experiment, Sprague-Dawley rat pups (age 8 days) were maintained in 5 litters (n=10-11/litter) for the duration of this study. On day 0, litters received intradermal (ID) injections of AHK:Cu (1:1) in a sterile saline solution, or a saline control (1 injection per animal, 0.05 ml per injection). Each litter contained 2 normal control animals where no AHK:Cu or Ara-C was administered (i.e., saline only). On day 1, designated animals began a series of 7 consecutive daily intraperitoneal (IP) injections with Ara-C (25 mg/kg). On day 10, all animals were evaluated for the extent of hairloss (alopecia) at the injection sites using the rating identified in Example 15.
Ara-C injections caused significant hair loss by day 5-6 in most animals. In order to evaluate the stimulatory effect of AHK:Cu, the degree of hairloss was evaluated at the injection site daily. […] Table 9 presents the results as evaluated on day 10 using the previously described rating scale, with the "Degree of Alopecia" being expressed as the average response seen at the site of injection.

[2] = test system: C3H mice (telogen hair growth phase); assay: Stimulation of hair growth after intradermal injection of peptide-copper complexes (Example 12); conditions: peptide to copper 2:1, day 21; for Number of Animals Growing Hair: responders/injected mice
Protocol: The following example illustrates the stimulation of hair growth in warm-blooded animals after intradermal injection of representative peptide-copper complexes of this invention.
As in Example 11 above, the backs of C3H mice (60 days old, telogen hair growth phase) were closely clipped on day 1 using an electric clipper. A sterile saline solution containing the indicated peptide-copper complex was then injected intradermally (i.e., infiltrated under the skin) at two locations within the clipped areas of the mice. Injection at two locations provided two test locations within the clipped area of each mouse. Each injection (0.1 ml) contained between 0.75 to 1.5 mg of the peptide-copper complex within the sterile saline solution. A group of saline injected mice (0.1 ml) served as controls. Following injection of the peptide-copper complexes, indications of hair growth were seen within 10 days. The first visual signs were a darkening of the skin in a circular region surrounding the injection site. The size of this region is generally dose dependent, increasing with an increase in dose. The 0.1 ml injections used in this experiment produced a circle of hair growth measuring approximately 0.5 cm^2 to 5 cm^2 in diameter. Active hair growth occurred between 14-20 days following injection, with a maximum effect seen by day 29. Both the number of mice growing hair at the injection site and the diameter of the hair growth region were determined at day 21.

[3] = test system: C3H mice (telogen hair growth phase); assay: Stimulation of hair growth by intradermal injection of peptide-copper complexes containing D-amino acids (Example 13); conditions: peptide to copper 1.1:1
Protocol: This example illustrates the stimulation of hair growth in warm-blooded animals by intradermal injection of AHK:Cu (1.1:1) utilizing a D-amino acids inplace of the naturally occurring L-amino acid.
In this experiment, the backs of C3H mice (60 days old, telogen hair growth phase) were closely clipped on day 1 using an electric clipper. A sterile saline solution containing AHK:Cu (1.1:1), or AHK:Cu (1.1:1) containing a D-amino acid, was then injected intradermally (i.e., infiltrated under the skin) at two locations within the clipped areas of the mice. Injection at two locations provided two test locations within the clipped area of each mouse. Each injection (0.1 ml) contained either 1.2 or 1.8 μmoles per injection of peptide-copper complex in the sterile saline solution. A group of saline injected mice (0.1 ml) served as controls. Following injection of peptide copper complex, indications of hair growth were seen within 10 days. The first visual signs were a darkening of the skin in a circular region surrounding the injection site. The size of this region is generally dose dependent, increasing with an increase in dose. The 0.1 ml injections used in this experiment produced a circle of hair growth measuring approximately 0.5 cm^2 to 5 cm^2 in diameter. […]
The degree of hair growth was determined by measuring the total area of hair growth at the two injection sites.

[4] = test system: telogen cycle female C3H mice; assay: Stimulation of hair growth by topical application of a peptide-copper complex (Example 14)
Protocol: This example illustrates the stimulation of hair growth in warm-blooded animals by topical application of a peptide-copper complex. In this experiment, telogen cycle female C3H mice (60-65 days old) were prepared by clipping their posterior dorsal region (i.e., day 1). Topical application of peptide-copper complexes was performed twice per day (Monday-Friday) using a cotton-tipped applicator which delivered approximately 0.1 ml per treatment. The topical formulation used in this experiment contained the following components:
Topical application of the above formulation continued until the onset of follicle pigmentation, which proceeds the emergence of the hair shall. Measurement of the degree of response was performed using digital image analysis at weekly intervals, beginning at day 14. Data was expressed as the percent treatment area response using the following equation:
% treatment area=(growth area/treatment area)×100
For comparison purposes to illustrate the effect of hydrophobic amino acid residues on hair growth after topical application, AHK:Cu was compared to AHF:Cu. In this experiment, topical formulations containing AHK:Cu (1.1:1) and AHF:Cu (1.1:1) were prepared at a concentration of 0.5% and 0.1% (w/w) as indicated above. Hair growth response (i.e., "Percent Treatment Area") was determined at day 20, day 27 and at day 34.

[5] = topical 0.1% w/w twice per day, peptide to copper 1.1:1, day 20
[6] = topical 0.1% w/w twice per day, peptide to copper 1.1:1, day 27
[7] = topical 0.1% w/w twice per day, peptide to copper 1.1:1, day 34
[8] = topical 0.5% w/w twice per day, peptide to copper 1.1:1, day 20
[9] = topical 0.5% w/w twice per day, peptide to copper 1.1:1, day 27
[10] = topical 0.5% w/w twice per day, peptide to copper 1.1:1, day 34

## alanyl-histidyl-lysine:copper [AHK:Cu]
[1]; 0.05 mg per injection, 3.5 mg/kg intradermal day 0, peptide to copper 1:1, Ara-C 25 mg/kg IP x 7 days
  Degree of Alopecia (mean) at the site of injection: 3.25
[1]; 0.10 mg per injection, 7.0 mg/kg intradermal day 0, peptide to copper 1:1, Ara-C 25 mg/kg IP x 7 days
  Degree of Alopecia (mean) at the site of injection: 2.38
[1]; 0.25 mg per injection, 17.5 mg/kg intradermal day 0, peptide to copper 1:1, Ara-C 25 mg/kg IP x 7 days
  Degree of Alopecia (mean) at the site of injection: 1.44
[1]; 0.50 mg per injection, 35.0 mg/kg intradermal day 0, peptide to copper 1:1, Ara-C 25 mg/kg IP x 7 days
  Degree of Alopecia (mean) at the site of injection: 1.11
[1]; intradermal, with Ara-C, follicles away from the injection dystrophic and non-functional
  Histology of hair follicles at the injection site: normal appearing and functioning anagen hair follicles
[1]; intradermal, with Ara-C, most notably in the 0.1 to 0.5 mg dose groups
  Radius of retention of hair around the injection site: 0.25 cm
[2]; 0.75 mg/injection intradermal
  Area of Hair Growth: < 1 cm diameter
  Number of Animals Growing Hair: 1/4
[2]; 1.50 mg/injection intradermal
  Area of Hair Growth: > 1 cm diameter
  Number of Animals Growing Hair: 4/4
[3]; 1.2 μmoles per injection intradermal
  Area of Hair Growth (total area at the two injection sites): 3.07 ± 0.76
[3]; 1.8 μmoles per injection intradermal
  Area of Hair Growth (total area at the two injection sites): 3.24 ± 1.17
[4]; AHK:Cu compared to AHF:Cu, topical
  Relative hair growth activity after topical administration: more active in stimulating hair growth
[4]; [5]
  Percent Treatment Area (growth area/treatment area x 100): 1.29 ± 1.29%
[4]; [6]
  Percent Treatment Area (growth area/treatment area x 100): 23.07 ± 18.84%
[4]; [7]
  Percent Treatment Area (growth area/treatment area x 100): 90.14 ± 2.96%
[4]; [8]
  Percent Treatment Area (growth area/treatment area x 100): 75.87 ± 7.64%
[4]; [9]
  Percent Treatment Area (growth area/treatment area x 100): 100%
[4]; [10]
  Percent Treatment Area (growth area/treatment area x 100): 100%

## alanyl-histidyl-phenylalanine:copper [AHF:Cu]
[4]; [5]
  Percent Treatment Area (growth area/treatment area x 100): 0.00%
[4]; [6]
  Percent Treatment Area (growth area/treatment area x 100): 0.00%
[4]; [7]
  Percent Treatment Area (growth area/treatment area x 100): 12.91 ± 12.91%
[4]; [8]
  Percent Treatment Area (growth area/treatment area x 100): 55.05 ± 17.44%
[4]; [9]
  Percent Treatment Area (growth area/treatment area x 100): 100%
[4]; [10]
  Percent Treatment Area (growth area/treatment area x 100): 100%
